Experimental data as given in patent US20240082342A1, “PEPTIDE THERAPEUTICS FOR INCREASING LUNG CELL VIABILITY” (BOARD OF REGENTS, THE UNIVERSITY OF TEXAS SYSTEM, priority 2018, published 2024).
Entries after “also recorded” stand apart in the source; their conditions may differ.

What was measured:
[1] = tested on: A2Cs and lungs of WT mice with CLP injury; assay: Cecal ligation puncture (CLP) sepsis-induced ALI in WT mice; format: in vivo, mouse
Protocol: This model was described in detail in publication of the present inventor and colleagues, Gao, R et al., Am. J. Physiol. Mol. Physiol, 2015, 308:L847-L853.
WT mice were injected IP with vehicle, 1.5 mg/kg of CSP or control peptide (CP) 24 h after CLP injury. Sham-operated mice served as controls. Total RNA isolated from the lungs of these mice 72 h after CLP was quantitated for IL-17A mRNA by real-time PCR.
A2Cs were isolated from the lungs of these mice 72 h after CLP, and immunoblotted to assess changes in PAI-1, p53 and caspase-3 activation. All were increased by 72 h during CLP injury.
Mice were injected IP with CSP or control peptide (CP) 24 h after CLP injury. A2Cs isolated from these mice 72 h after CLP injury were immunoblotted for caveolin-1 and β-actin. Lysates of A2Cs from WT mice exposed to the above conditions were immunoprecipitated (IP) for PP2A-C and immunoblotted (IB) for caveolin-1 (Cav1) to assess their interaction.
Mice treated with or without CSP or CP 24 h after CLP injury were euthanized 72 h later and. lung tissues subjected to H&E staining to assess changes in lung inflammation. Lung homogenates and BAL fluids were analyzed for myeloperoxidase (MPO) to access PMN accumulation.
Mice were IP injected with CSP, CP or vehicle 24 h after CLP injury. Total RNA isolated from A2Cs of WT mice with or without CLP, CLP+CSP or CLP+CP 72 h after CLP induced ALI was reverse transcribed and subjected to real time PCR.
A2Cs isolated from mice with CLP, CLP+CSP or CLP+CP were immunoblotted for SP-C, thyroid transcription factor-1 (TTF-1) and β-actin. TTF-1 controls transcription of SP-C.
A2Cs isolated from mice 72 h after IP injection with CSP or CP alone without CLP injury and the lysates were immunoblotted for changes in SP-C expression. Lysates of A2Cs from uninjured (sham-operated) or CLP mice were also used for comparison.

[2] = tested on: AECs from human nL exposed to CSE; assay: Normal lung AECs exposed to TS/CS extract in vitro for 48 h; format: cell-based
Protocol: Primary Airway Epithelial Cells (AECs); Normal, Human (ATCC® PCS-301-010™) and Primary Airway Epithelial Cells; COPD (ATCC® PCS-301-013™) were obtained from the ATCC and cultured in Airway Cell Basal Medium with glutamine, Extract P, HLL Supplement, and AEC Supplement. containing and 1% penicillin-streptomycin. The cells were maintained at 37° C. in a humidified atmosphere at 5% CO2. All media, supplements, and antibiotics were purchased from ATCC.
Research cigarettes 2R4F were purchased from the Tobacco Health Research University of Kentucky (Lexington, KY). TSE extracts were prepared by burning research cigarettes in a side arm flask and the smoke generated was bubbled into phosphate-buffered saline at room temperature through an attached peristaltic pump as described earlier (Bhandary et al PloS One 10: e0123187, 2015) Tiwari et al. Am J Physiol Lung Cell Mol Physiol. 310:L496-506, 2016. An absorbance of 1.0 at 230 nm is considered 100%. TSE extract was filter sterilized by passing it through a 0.2-μm filter.
Preparation of CSE for the treatment of AECs in vitro. Research cigarettes 2R4F were purchased from the Tobacco Health Research, University of Kentucky (Lexington, KY). CSE were prepared by burning research cigarettes in a sidearm flask and the smoke generated was bubbled into phosphate-buffered saline (PBS) at room temperature through an attached peristaltic pump as described earlier (Shetty et al, 2012). An absorbance of 1.0 at 230 nm is considered 100%. CSE was filter sterilized by passing it through a 0.2-μm filter.
CSP7 inhibits MH and cilia dysfunction in AECs exposed to CS extract (CSE). To further confirm the above findings, AECs isolated from human nL were exposed to CSE in vitro for 48 h and analyzed for MUC5AC, HDAC6, FOXA2, FOXA3, SPDEF, acetylated alpha-tubulin, p53, PAI-1 and LC3. […] The changes at protein level allied with corresponding changes at the mRNA levels (FIG. 36B). […] CSE induced co-localization of MUC5AC and HDAC6, and acetylated alpha-tubulin and LC3 were inhibited following treatment with CSP7.

[3] = tested on: AECs from nL overexpressing CAV1, p53 or PAI-1; assay: AECs transduced with Ad-CAV1, Ad-p53 or Ad-PAI-1; format: cell-based, human
Protocol: Expression of CAV1, p53, or PAI-1 in AECs. AECs isolated from nL were separately transduced with Ad-CAV1 or Ad-p53 or Ad-PAI-1. AECs transduced with Ad-Ev were used as controls. In a separate experiment, AECs from nL in culture dishes were treated with Lv-p53 or Lv-PAI-1 shRNA to suppress its baseline expression before treating these cells with CSE. Naive AECs and AECs exposed to non-specific control shRNA was used as controls.

| Substance | IL-17A in lung tissues ([1]; 1.5 mg/kg IP 24 h after CLP, 72 h) | miR-34a expression in A2Cs (real time PCR, normalized to U6) ([1]; 72 h after CLP) | A2C apoptosis, p53 and PAI-1 expression ([1]; IP 24 h after CLP, 72 h) | A2C caveolin-1 interaction with PP2A-C (IP/IB) ([1]; IP 24 h after CLP, 72 h) | accumulation of PMN (MPO, H&E) ([1]; IP 24 h after CLP, 72 h) | SP-C expression by A2Cs ([1]; normal lungs, without CLP injury, 72 h after IP) | SP-C expression by A2Cs ([1]; sepsis-induced ALI) | inhibition of miR-34a in A2Cs ([1]; vs CLP or CLP+CP, 3 days after injury) [fold] | acetylated alpha-tubulin (immunofluorescence) ([2]; AECs + CSE) | TS-induced MUC5A gene expression ([2]; bronchial epithelial cells) | Caveolin1 expression ([2]; nL AECs + TSE) | MUC5AC, HDAC6, FOXA3, SPDEF and FOXA2 mRNA (qPCR) ([2]; nL AECs + TSE) | autophagy protein markers (Western blot) ([2]; nL AECs + TSE) | cilia length and number of ciliated cells ([2]; nL AECs + TSE/CSE) | co-localization of MUC5AC/HDAC6 and Ac-Tubulin/LC3 ([2]; nL AECs + TSE/CSE) | MUC5AC, HDAC6, FOXA3, SPDEF, CAV1, p53, PAI-1, LC3, FOXA2, Ac-Tub proteins (Western blot) ([2]; nL AECs + TSE/CSE 48 h) | MUC5AC, HDAC6, FOXA3, LC3, FOXA2, acetylated alpha-tubulin; mucus hypersecretion and cilia disassembly ([3]; Ad-CAV1 transduced AECs) | p53 and PAI-1 expression ([3]; Ad-CAV1 transduced AECs) | MUC5AC, HDAC6, FOXA3, p53, LC3, acetylated alpha-tubulin ([3]; Ad-PAI-1 transduced AECs) | MUC5AC, acetylated alpha-tubulin, FOXA2, CAV1, p53, PAI-1 ([3]; Ad-p53 transduced AECs) |
| --- | --- | --- | --- | --- | --- | --- | --- | --- | --- | --- | --- | --- | --- | --- | --- | --- | --- | --- | --- | --- |
| DGIWKASFTTFTVTKYWFYR (listed as Homo sapiens) [CSP, 20 residue caveolin-1 scaffolding domain peptide] | suppressed sepsis induced IL-17A | significantly reduced | concurrent inhibition of A2C apoptosis and p53 and PAI-1 expression | inhibited the A2C caveolin-1 interaction with PP2A-C | significantly inhibited accumulation of PMN | induced SP-C expression | induction of SP-C expression | 7 |  |  |  |  |  |  |  |  |  |  |  |  |
| FTTFTVT (listed as Homo sapiens) [CSP7, heptapeptide fragment of the caveolin-1 scaffolding domain peptide CSP] |  |  |  |  |  |  |  |  | improved; also recorded: reversed with CSP7 treatment | inhibited TS-induced MUC5A gene expression | reversed by CSP7 | reversed by CSP7 treatment | reversed by CSP7 | significantly improved; also recorded: significantly reversed | reversal of the co-localization; also recorded: inhibited | reversed with CSP7 treatment | can mitigate the mucus hypersecretion and cilia disassembly; also recorded: reduced CAV1-induced MUC5AC, HDAC6, FOXA3, and LC3 while restoring FOXA2 and acetylated alpha-tubulin | reduced the expression of p53 and PAI-1 | reversed | reduced MUC5AC and restored acetylated alpha-tubulin and FOXA2, while inhibiting CAV1, p53, and PAI-1 |
| WGIDKAFFTTSTVTYKWFRY [CP, scrambled control peptide with the same amino acid composition as CSP, reference compound] |  |  |  |  |  |  |  |  |  |  |  |  |  | failed to respond |  |  |  |  |  |  |
